Drawing on PubChem BioAssay (NCI), this text covers TGI for 22 compounds.

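Assay format: 96-well plates, 48-hour exposure. Definition used: TGI = concentration required for complete inhibition of growth.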

Some test systems named below: NCI-H23 lung; BT-549 breast; M14 melanoma; RPMI-8226 leukemia; SF-268 CNS; OVCAR-3 ovarian; MALME-3M melanoma; NCI-H226 lung; U251 CNS; SK-MEL-2 melanoma.
What all share (assay): NCI-60 cell line screen, 48 h

For the compound `O=C(CSc1n[nH]c(=O)[nH]c1=O)NNC(=O)c1cccc2nc3ccccc3nc12`, the TGI with NCI-H23 lung is greater than 100 µM; in the experiment with BT-549 breast, 83.7 µM; in the experiment on M14 melanoma, greater than 100 µM; with RPMI-8226 leukemia, greater than 100 µM; in the experiment on SF-268 CNS, greater than 100 µM; with OVCAR-3 ovarian it was greater than 100 µM. Further, the TGI in the experiment with MALME-3M melanoma is 87.8 µM; in the experiment on NCI-H226 lung it was greater than 100 µM; in the experiment on U251 CNS it was greater than 100 µM; with SK-MEL-2 melanoma, greater than 100 µM.
For `CC1(C)CNC(=O)C2(C=NC(C)(C)CNC(=O)C3(C=N1)CCCO3)CCCO2` (stereo not given), the TGI in the experiment with NCI-H23 lung, in the experiment with BT-549 breast, with M14 melanoma, in the experiment on RPMI-8226 leukemia, in the experiment with SF-268 CNS and in the experiment with OVCAR-3 ovarian was greater than 10 µM each time. Further, the TGI with MALME-3M melanoma and in the experiment on U251 CNS was greater than 10 µM in each case.
`Nc1ccc(S(=O)(=O)Nc2nc3ccccc3nc2N2CCCCC2)cc1`: the TGI with NCI-H23 lung, in the experiment on BT-549 breast, in the experiment on M14 melanoma, with RPMI-8226 leukemia, with SF-268 CNS and in the experiment with OVCAR-3 ovarian was greater than 100 µM throughout. Also, the TGI in the experiment with MALME-3M melanoma, in the experiment on NCI-H226 lung, in the experiment with U251 CNS and with SK-MEL-2 melanoma was greater than 100 µM throughout.
`CNC(=O)N(CCC#N)[C@H]1CCCC[C@@H]1N(C(=O)NC)c1ccccc1`: the TGI with NCI-H23 lung, in the experiment with BT-549 breast, with M14 melanoma, in the experiment on RPMI-8226 leukemia, in the experiment with OVCAR-3 ovarian and with MALME-3M melanoma was greater than 100 µM in each case. Moreover, the TGI in the experiment with NCI-H226 lung, in the experiment with U251 CNS and in the experiment on SK-MEL-2 melanoma was greater than 100 µM in each case.
Consider `O=C1C=CC(=O)c2c(O)c(NCCc3ccc(O)cc3)c(Cl)c(O)c21`, for which the TGI in the experiment with NCI-H23 lung, in the experiment with BT-549 breast, with M14 melanoma, in the experiment on RPMI-8226 leukemia, in the experiment with SF-268 CNS and in the experiment with OVCAR-3 ovarian was greater than 10 µM in each case. Further, the TGI in the experiment on MALME-3M melanoma, in the experiment with NCI-H226 lung, in the experiment on U251 CNS and with SK-MEL-2 melanoma was greater than 10 µM throughout.
In the case of `CC1(C)C=C(S(=O)(=O)c2ccccc2)Oc2ccccc2O1`, the TGI with NCI-H23 lung, in the experiment with BT-549 breast, in the experiment on M14 melanoma, with RPMI-8226 leukemia, in the experiment on SF-268 CNS and in the experiment with OVCAR-3 ovarian was greater than 100 µM each time. Also, the TGI is 75.2 µM in the experiment with MALME-3M melanoma, greater than 100 µM in the experiment with NCI-H226 lung, greater than 100 µM in the experiment with U251 CNS and greater than 100 µM in the experiment with SK-MEL-2 melanoma.
Turning to `c1ccc(/C(=N/Nc2ccccn2)c2ncccn2)cc1`, the TGI in the experiment with NCI-H23 lung was greater than 37.6 µM; in the experiment with BT-549 breast it was greater than 100 µM; with M14 melanoma, 6.93 µM; with RPMI-8226 leukemia, greater than 62.9 µM; in the experiment with SF-268 CNS it was 5.06 µM; with OVCAR-3 ovarian it was greater than 44.3 µM. Moreover, the TGI was 59.8 µM in the experiment on MALME-3M melanoma, 0.956 µM in the experiment on NCI-H226 lung, greater than 51.6 µM in the experiment on U251 CNS and greater than 100 µM in the experiment with SK-MEL-2 melanoma.
For the compound `Brc1ccc2c(-c3csc(-c4c[nH]c5ccc(Br)cc45)n3)c[nH]c2c1`, the TGI in the experiment on NCI-H23 lung was 14.2 µM; in the experiment on BT-549 breast, 27.7 µM; with M14 melanoma, 13.3 µM; with RPMI-8226 leukemia, greater than 21.4 µM; with SF-268 CNS, 13.2 µM; in the experiment on OVCAR-3 ovarian, 23.2 µM. Further, the TGI in the experiment on MALME-3M melanoma stood at 19.3 µM; in the experiment with NCI-H226 lung, 32.1 µM; with U251 CNS, 16.5 µM; in the experiment on SK-MEL-2 melanoma, 18.8 µM.
With `COc1ccc2c(c1)CN1C(=N2)CSC1c1ccccc1Cl` (stereo not given), the TGI in the experiment with NCI-H23 lung worked out at 3.45 µM; with BT-549 breast it was 80.3 µM; in the experiment on M14 melanoma, 35.4 µM; in the experiment on RPMI-8226 leukemia, 29.9 µM; in the experiment with SF-268 CNS, 76.4 µM; in the experiment on MALME-3M melanoma it was 47.9 µM. Also, the TGI in the experiment with NCI-H226 lung is 31.3 µM; with U251 CNS, 59.6 µM; with SK-MEL-2 melanoma, 37.3 µM.
Consider `CCCCc1ccc(Nc2nc3c(ncn3COCCO)c(=O)[nH]2)cc1`, for which the TGI in the experiment on NCI-H23 lung, with BT-549 breast, in the experiment with M14 melanoma, in the experiment on RPMI-8226 leukemia, in the experiment on SF-268 CNS and with OVCAR-3 ovarian was greater than 100 µM each time. Besides, the TGI with MALME-3M melanoma, in the experiment with NCI-H226 lung, with U251 CNS and in the experiment on SK-MEL-2 melanoma was greater than 100 µM in each case.
For the compound `COCC1OC(N2C(=O)NC(=O)[C@@H]3C=C4CCCCC4=C[C@@H]32)C(OC)C1OC` (stereo not given in full), the TGI in the experiment with BT-549 breast, with M14 melanoma, in the experiment on RPMI-8226 leukemia, in the experiment with SF-268 CNS, in the experiment with OVCAR-3 ovarian and with MALME-3M melanoma was greater than 100 µM throughout. The TGI with NCI-H226 lung, with U251 CNS and with SK-MEL-2 melanoma was greater than 100 µM each time.
In the case of `C=C1CC(C)(c2ccc(Nc3nc4ccccc4c4occc34)cc2)OC1=O` (stereo not given), the TGI came to 4.55 µM with NCI-H23 lung; 7.02 µM in the experiment with BT-549 breast; 4.73 µM in the experiment on M14 melanoma; 4.47 µM with RPMI-8226 leukemia; 15.2 µM in the experiment with SF-268 CNS; 12.9 µM with OVCAR-3 ovarian. Further, the values for the TGI in the experiment with MALME-3M melanoma, in the experiment with NCI-H226 lung and in the experiment with U251 CNS were 43.4 µM, 1.94 µM and 38.9 µM, respectively.
`FC(F)(F)c1ccc2nc3n(c2c1)C(c1c(Cl)cccc1Cl)SC3` (stereo not given): the TGI in the experiment on NCI-H23 lung turned out to be 37 µM; in the experiment on BT-549 breast it was 50.3 µM; in the experiment on M14 melanoma it was 30.7 µM; in the experiment on SF-268 CNS it was 41.8 µM; with OVCAR-3 ovarian, 29.4 µM; in the experiment on MALME-3M melanoma it was 29.9 µM. The TGI is 35.4 µM in the experiment on NCI-H226 lung, 32.6 µM with U251 CNS and 42.3 µM with SK-MEL-2 melanoma.
On to `COC(=O)c1ccc(C=Nc2ccc(S(N)(=O)=O)cc2)cc1`, for which the TGI is greater than 100 µM with BT-549 breast; greater than 100 µM with M14 melanoma; 86.2 µM in the experiment with RPMI-8226 leukemia; greater than 100 µM in the experiment on SF-268 CNS; greater than 100 µM in the experiment on OVCAR-3 ovarian; greater than 100 µM with MALME-3M melanoma. Further, the TGI in the experiment on NCI-H226 lung, in the experiment on U251 CNS and in the experiment on SK-MEL-2 melanoma was greater than 100 µM each time.
Take `O=C1C=C(c2ccccc2)O/C1=C/C(=O)c1ccc(Cl)cc1`: the TGI in the experiment with BT-549 breast came out at 30.1 µM; in the experiment on M14 melanoma, 40.3 µM; in the experiment on RPMI-8226 leukemia, 25.9 µM; with SF-268 CNS it was 54.6 µM; in the experiment with OVCAR-3 ovarian, 31.9 µM; in the experiment with MALME-3M melanoma it was 36 µM. The compound also came in with a TGI in the experiment on U251 CNS of 29.1 µM.
With `CSc1nc2c(c(=O)n1C)N=C(c1ccccc1)[C@H](C(CC(=O)c1ccccc1)c1ccccc1)C(c1ccccc1)N2` (stereo not given in full), the TGI in the experiment with NCI-H23 lung, with BT-549 breast, with M14 melanoma, in the experiment with RPMI-8226 leukemia, in the experiment on OVCAR-3 ovarian and in the experiment with MALME-3M melanoma was greater than 100 µM throughout. Besides, the TGI in the experiment with NCI-H226 lung, in the experiment with U251 CNS and in the experiment on SK-MEL-2 melanoma was greater than 100 µM throughout.
Take `Cc1cc2ncc3c(=O)n(NS(=O)(=O)c4ccc(N)cc4)ccc3n2n1`: the TGI in the experiment with NCI-H23 lung, with BT-549 breast, with M14 melanoma, with SF-268 CNS, in the experiment with OVCAR-3 ovarian and with MALME-3M melanoma was greater than 100 µM throughout. Also, the TGI in the experiment on NCI-H226 lung, with U251 CNS and in the experiment on SK-MEL-2 melanoma was greater than 100 µM each time.
For `O=c1oc2cc(O)ccc2c(O)c1C(c1ccc(C(c2c(O)c3ccc(O)cc3oc2=O)c2c(O)c3ccc(O)cc3oc2=O)cc1)c1c(O)c2ccc(O)cc2oc1=O`, the TGI in the experiment with NCI-H23 lung, with BT-549 breast, in the experiment on M14 melanoma, in the experiment with SF-268 CNS, with OVCAR-3 ovarian and in the experiment on MALME-3M melanoma was greater than 100 µM throughout. For the same compound, the TGI with NCI-H226 lung, in the experiment on U251 CNS and with SK-MEL-2 melanoma was greater than 100 µM throughout.
As for `Cc1cn([C@@H]2C[C@H]2CO)c(=O)[nH]c1=O`, the TGI in the experiment with NCI-H23 lung, with BT-549 breast, in the experiment with M14 melanoma, with RPMI-8226 leukemia, in the experiment with SF-268 CNS and with MALME-3M melanoma was greater than 100 µM each time. Moreover, the TGI with NCI-H226 lung, in the experiment on U251 CNS and in the experiment on SK-MEL-2 melanoma was greater than 100 µM each time.
For the compound `O=C(N/N=C/c1ccco1)c1cc(I)cc(I)c1O`, the TGI was greater than 50 µM with NCI-H23 lung; greater than 50 µM in the experiment with BT-549 breast; greater than 50 µM with M14 melanoma; 43 µM in the experiment on RPMI-8226 leukemia; greater than 50 µM in the experiment on SF-268 CNS; greater than 50 µM in the experiment on MALME-3M melanoma. The TGI in the experiment on NCI-H226 lung stood at 39.7 µM; with SK-MEL-2 melanoma, 19.7 µM.
On to `Cc1c2ncccc2cc2oc3ccccc3c(=O)c12`, for which the TGI in the experiment on NCI-H23 lung, in the experiment with BT-549 breast, in the experiment with RPMI-8226 leukemia, in the experiment with SF-268 CNS, with OVCAR-3 ovarian and in the experiment on MALME-3M melanoma was greater than 100 µM throughout. Also, the TGI in the experiment on NCI-H226 lung and with SK-MEL-2 melanoma was greater than 100 µM in each case.
On to `c1ccc2c3c(c(N4CCOCC4)nc2c1)CCCC3`, for which the TGI in the experiment with NCI-H23 lung, in the experiment with BT-549 breast, with M14 melanoma, in the experiment on SF-268 CNS, in the experiment on OVCAR-3 ovarian and in the experiment on MALME-3M melanoma was greater than 100 µM in each case. The TGI was 68.1 µM with NCI-H226 lung, greater than 100 µM in the experiment on U251 CNS and greater than 100 µM in the experiment with SK-MEL-2 melanoma.
